# Data taken from patent US12391919B2, “Culture medium, coating matrix and method for maturing midbrain dopaminergic progenitor cells” (NUWACELL BIOTECHNOLOGIES CO., LTD., priority 2022, dated 2025).
# B1: VTN: vitronectin, first coating matrix that supports cell adhesion (protein, UniProt P04004 20-478, looked up)
# Vitronectin: DQESCKGRCTEGFNVDKKCQCDELCSYYQSCCTDYTAECKPQVTRGDVFTMPEDEYTVYDDGEEKNNATVHEQVGGPSLTSDLQAQSKGNPEQTPVLKPEEEAPAPEVGASKPEGIDSRPETLHPGRPQPPAEEELCSGKPFDAFTDLKNGSLFAFRGQYCYELDEKAVRPGYPKLIRDVWGIEGPIDAAFTRINCQGKTYLFKGSQYWRFEDGVLDPDYPRNISDGFDGIPDNVDAALALPAHSYSGRERVYFFKGKQYWEYQFQHQPSQEECEGSSLSAVFEHFAMMQRDSWEDIFELLFWGRTSAGTRQPQFISRDWHGVPGQVDAAMAGRIYISGMAPRPSLAKKQRFRHRNRKGYRSQRGHSRGRNQNSRRPSRATWLSLFSSEESNLGANNYDDYRMDWLVPATCEPIQSVFFFSGDKYYRVNLRTRRVDTVDPPYPRSIAQYWLGCPAPGHL
# Test system: imDAPs
# Assay: imDAP expansion: cell morphology, cell number (Vi-cell cytometer), expansion fold, Population Doubling Time
# Format: cell-based, human
# Details: for attachment and morphology of imDAPs on the coated surface: Example 8, coating 1 μg/cm^2, day 4, FIG. 4A
# Procedure: imDAPs were produced according to the method described in CN201910169525.0. The imDAPs (P0) were seeded on VTN-coated plates (1 μg/cm^2) at a density of 1×10^5 cells/cm^2 in the expansion medium (50% DMEM/F12, 50% Neurobasal™ medium, 1% (v/v) Glutamax, 2% (v/v) B27 (50×), 0.2 μM LDN193189, 3 μM CHIR99021, 100 ng/mL FGF8b) in the absence or presence of 5 μM Blebbistatin. In case where Blebbistatin is present, Blebbistatin was either removed 24 hrs after plating or present throughout the culture period. The medium was changed every day for 5 days.
# imDAPs were produced according to the method described in CN201910169525.0. The imDAPs (P0) were seeded on VTN-coated plates (1 μg/cm^2) at a density of 1×10^5 cells/cm^2 in the expansion medium (50% DMEM/F12, 50% Neurobasal™ medium, 1% (v/v) Glutamax, 2% (v/v) B27 (50×), 3 μM CHIR99021, 100 ng/mL FGF8b, […]) in the absence or presence of 0.2 μM LDN193189. The medium was changed every day for 5 days.
# imDAPs were produced according to the method described in CN201910169525.0. The imDAPs (P0) were seeded on VTN-coated plates (1 μg/cm^2) at a density of 1×10^5 cells/cm^2 in the expansion medium (50% DMEM/F12, 50% Neurobasal™ medium, 1% (v/v) Glutamax, 2% (v/v) B27 (50×), 0.2 μM LDN193189, 3 μM CHIR99021, 100 ng/mL FGF8b, 5 μM Blebbistatin). The medium was changed every day. When imDAPs reach 100% confluence (4-5 days), cells were passaged enzymatically with 1× TrypLE, centrifuged at 250 g for 5 minutes, counted and replaced on new VTN-coated plates (1 μg/cm^2) at a density of 1×10^5 cells/cm^2 in the expansion medium. imDAPs were continuously expanded for 6 passages. At each passage, imDAPs were harvested at an expansion fold 5˜10 (over the initial number of imDAPs plated).
# imDAPs were produced according to the method described in CN201910169525.0. The imDAPs (P0) were seeded on DLL4-coated ([…]), VTN-coated (1 μg/cm^2) and DLL4/VTN-coated ([…]) plates at a low density of 1×10^4 cells/cm^2 respectively, and cultured in the expansion medium in the absence or presence of 5 µM SB431542. Medium was replaced every 3rd day until reaching 100% confluence (6 days) for cell collection. The typical cell morphology on day 4 was recorded (FIG. 4A). The cell number of each group was counted by Vi-cell cytometer (FIG. 4B). The cells of each group were stained with Foxa2-PE antibody (BD, #561589), the percentage of Foxa2+ imDAPs were analyzed by flow cytometry (FIG. 4C). The expansion medium used in this example contained the following components: 50% DMEM/F12, 50% Neurobasal™ medium, 1% (v/v) Glutamax, 1% (v/v) B27, 50 μg/ml ascorbic acid, 0.2 μM LDN193189, 100 ng/ml FGF8b, 3 μM CHIR99021 and 10 μM Y27632.
# imDAPs were produced according to the method described in CN201910169525.0. The imDAPs (P0) were seeded on DLL4/VTN-coated (1 μg/cm^2 for each) plates at a low density of 1×10^4 cells/cm^2, and cultured in the expansion medium (EM1, EM2, EM3, EM4). Medium was replaced every 3rd day until reaching 100% confluence (6 days) for cell collection. EM1 used in Example 9 contained the following components: 50% DMEM/F12, 50% Neurobasal™ medium, 1% (v/v) Glutamax, 1% (v/v) B27 (50×), […], 3 μM CHIR99021, 5 μM SB431542 and 10 μM Y27632. EM2 used in Example 9 contained the following components: 50% DMEM/F12, 50% Neurobasal™ medium, 1% (v/v) Glutamax, 1% (v/v) B27 (50×), 50 μg/ml ascorbic acid, […] LDN193189, 3 μM CHIR99021, 5 μM SB431542 and 10 μM Y27632. EM3 used in Example 9 contained the following components: 50% DMEM/F12, 50% Neurobasal™ medium, 1% (v/v) Glutamax, 1% (v/v) B27 (50×), 50 μg/mL ascorbic acid, […], 100 ng/ml FGF8b, 3 μM CHIR99021, 5 μM SB431542 and 10 μM Y27632. EM4 used in Example 9 contained the following components: 50% DMEM/F12, 50% Neurobasal™ medium, 1% (v/v) Glutamax, 1% (v/v) B27 (50×), 50 μg/ml ascorbic acid, 0.2 μM LDN193189, 10 ng/ml FGF2, 3 μM CHIR99021, 5 μM SB431542 and 10 μM Y27632. […]
Molecule,"cell morphology of expanded imDAPs (Example 2, with vs without 0.2 μM LDN193189, VTN-coated plates, 5 days, FIG. 1B)",imDAP expansion (overall conclusion) (Example 9),"cell number during expansion (Example 9, added to medium with CHIR99021, SB431542 and Y27632, DLL4/VTN-coated, 6 days, FIG. 5B)",attachment and morphology of imDAPs on the coated surface
c1ccc2c(-c3cnn4cc(-c5ccc(N6CCNCC6)cc5)cnc34)ccnc2c1 [LDN193189],cultured without LDN193189 showed more flattened morphology,had no additional effects on imDAP expansion,had no additional effect on increasing the cell number during expansion,–
DLL4: Notch agonist used as second coating matrix,–,–,–,could not support the attachment of imDAPs
B1,–,–,–,showed flattened morphology
